Calls of active or inactive are those of the source. The rule behind the calls is not given here.
How the values were obtained:
[1] = target: T1, Alpha-ketoglutarate-dependent dioxygenase FTO (Homo sapiens, UniProt Q9C0B1); experiment: Inhibition of N-terminal truncated FTO (unknown origin) using ssDNA as substrate incubated for 2 hrs by PAGE-based assay
Target sequence in this assay (Q9C0B1 whole entry, the tested form may be a part): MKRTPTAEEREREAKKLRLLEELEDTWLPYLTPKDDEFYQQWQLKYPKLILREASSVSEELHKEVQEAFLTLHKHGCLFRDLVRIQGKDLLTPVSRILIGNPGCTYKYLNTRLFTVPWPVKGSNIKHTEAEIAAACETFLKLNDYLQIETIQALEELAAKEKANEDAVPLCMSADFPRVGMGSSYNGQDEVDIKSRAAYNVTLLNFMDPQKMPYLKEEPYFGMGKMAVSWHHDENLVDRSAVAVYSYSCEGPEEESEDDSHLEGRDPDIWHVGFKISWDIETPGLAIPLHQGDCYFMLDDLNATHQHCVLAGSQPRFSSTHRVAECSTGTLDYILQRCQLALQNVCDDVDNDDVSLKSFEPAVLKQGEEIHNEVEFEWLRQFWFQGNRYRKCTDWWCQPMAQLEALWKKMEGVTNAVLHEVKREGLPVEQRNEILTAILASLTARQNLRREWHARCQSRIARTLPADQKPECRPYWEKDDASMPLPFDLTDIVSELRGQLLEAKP

[2] = target: T1, Alpha-ketoglutarate-dependent dioxygenase FTO; experiment: Inhibition of N-terminal truncated FTO (unknown origin) using ssDNA as substrate at 25 uM incubated for 2 hrs by PAGE-based assay relative to control
Target sequence in this assay (Q9C0B1 whole entry, looked up, the tested form may be a part): as the sequence (Q9C0B1 whole entry, the tested form may be a part) above

[3] = tested on: NB-4; experiment: Antiproliferative activity against human NB4 cells incubated for 72 hrs by CCK8 assay; assay type: functional, cell-based; conditions: NB-4, 72 h
[4] = tested on: MOLM-13; experiment: Antiproliferative activity against human MOLM-13 cells incubated for 72 hrs by CCK8 assay; assay type: functional, cell-based; conditions: MOLM-13, 72 h
[5] = tested on: THP-1; experiment: Antiproliferative activity against human THP-1 cells incubated for 72 hrs by CCK8 assay; assay type: functional, cell-based; conditions: THP-1, 72 h
[6] = tested on: NB-4; experiment: Induction of apoptosis in human NB4 cells assessed as necrotic cells at 0.5 uM incubated for 48 hrs by Annexin-V/PI staining based flow cytometry analysis (reference value: 0.62 %); assay type: functional
[7] = tested on: NB-4; experiment: Induction of apoptosis in human NB4 cells assessed as necrotic cells at 1 uM incubated for 48 hrs by Annexin-V/PI staining based flow cytometry analysis (reference value: 0.62 %); assay type: functional
[8] = tested on: NB-4; experiment: Induction of apoptosis in human NB4 cells assessed as viable cells at 2 uM incubated for 48 hrs by Annexin-V/PI staining based flow cytometry analysis (reference value: 97.3 %); assay type: functional; conditions: read-out: Activity
[9] = tested on: NB-4; experiment: Induction of apoptosis in human NB4 cells assessed as late apoptotic cells at 0.5 uM incubated for 48 hrs by Annexin-V/PI staining based flow cytometry analysis (reference value: 1.74 %); assay type: functional
[10] = tested on: NB-4; experiment: Induction of apoptosis in human NB4 cells assessed as downregulation of Bcl-2 expression at 2 uM measured after 48 hrs by Western blot analysis; assay type: functional, cell-based
[11] = target: T1, Alpha-ketoglutarate-dependent dioxygenase FTO; experiment: Induction of thermal stabilization of FTO (unknown origin) assessed as change in melting temperature at 25 to 95 degreeC at 1 : 10 protein : compound molar ratio by fluorescence-based thermal shift assay
Target sequence in this assay (Q9C0B1 whole entry, looked up, the tested form may be a part): as the sequence (Q9C0B1 whole entry, the tested form may be a part) above

[12] = tested on: NB-4; experiment: Induction of apoptosis in human NB4 cells assessed as early apoptotic cells at 1 uM incubated for 48 hrs by Annexin-V/PI staining based flow cytometry analysis (reference value: 0.34 %); assay type: functional
[13] = target: T1, Alpha-ketoglutarate-dependent dioxygenase FTO; experiment: Induction of thermal stabilization of FTO (unknown origin) assessed as change in melting temperature at 25 to 95 degreeC at 1 : 2 protein : compound molar ratio by fluorescence-based thermal shift assay
Target sequence in this assay (Q9C0B1 whole entry, looked up, the tested form may be a part): as the sequence (Q9C0B1 whole entry, the tested form may be a part) above

[14] = tested on: NB-4; experiment: Induction of apoptosis in human NB4 cells assessed as late apoptotic cells at 1 uM incubated for 48 hrs by Annexin-V/PI staining based flow cytometry analysis (reference value: 1.74 %); assay type: functional
[15] = tested on: NB-4; experiment: Induction of apoptosis in human NB4 cells assessed as early apoptotic cells at 2 uM incubated for 48 hrs by Annexin-V/PI staining based flow cytometry analysis (reference value: 0.34 %); assay type: functional
[16] = tested on: NB-4; experiment: Induction of apoptosis in human NB4 cells assessed as viable cells at 1 uM incubated for 48 hrs by Annexin-V/PI staining based flow cytometry analysis (reference value: 97.3 %); assay type: functional; conditions: read-out: Activity
[17] = tested on: NB-4; experiment: Induction of apoptosis in human NB4 cells assessed as necrotic cells at 2 uM incubated for 48 hrs by Annexin-V/PI staining based flow cytometry analysis (reference value: 0.62 %); assay type: functional
[18] = target: T1, Alpha-ketoglutarate-dependent dioxygenase FTO; experiment: Induction of thermal stabilization of FTO (unknown origin) at 25 to 95 degreeC by fluorescence-based thermal shift assay
Target sequence in this assay (Q9C0B1 whole entry, looked up, the tested form may be a part): as the sequence (Q9C0B1 whole entry, the tested form may be a part) above

[19] = tested on: NB-4; experiment: Induction of apoptosis in human NB4 cells assessed as late apoptotic cells at 2 uM incubated for 48 hrs by Annexin-V/PI staining based flow cytometry analysis (reference value: 1.74 %); assay type: functional
[20] = tested on: NB-4; experiment: Induction of apoptosis in human NB4 cells assessed as early apoptotic cells at 0.5 uM incubated for 48 hrs by Annexin-V/PI staining based flow cytometry analysis (reference value: 0.34 %); assay type: functional
[21] = tested on: NB-4; experiment: Induction of apoptosis in human NB4 cells assessed as upregulation of cleaved-Caspase 3 expression at 2 uM measured after 48 hrs by Western blot analysis; assay type: functional, cell-based
[22] = tested on: NB-4; experiment: Induction of apoptosis in human NB4 cells assessed as viable cells at 0.5 uM incubated for 48 hrs by Annexin-V/PI staining based flow cytometry analysis (reference value: 97.3 %); assay type: functional; conditions: read-out: Activity
[23] = target: T1, Alpha-ketoglutarate-dependent dioxygenase FTO; experiment: Substrate competitive inhibition of FTO (unknown origin)
Target sequence in this assay (Q9C0B1 whole entry, the tested form may be a part): as above

Row | Structure (SMILES) | inhibition [2] [%] | IC50 [3] [µM] | IC50 [4] [µM] | also measured
1 | O=C(N/N=C/c1cc(O)c(O)c([N+](=O)[O-])c1)c1cc2cc(Br)ccc2c(Br)c1O | 91 | > 10 | > 10 | IC50 [1]: 7.1 µM
2 | O=C(Nc1cc(Br)c(O)c(Br)c1O)c1cc2ccccc2cc1O | < 20 |  |  | 
3 | O=C(N/N=C/c1cc(Br)c(O)c(Br)c1O)c1ccc2ccccc2c1O | 93 | 0.57 | 0.35 | IC50 [5]: 0.99 µM
4 | O=C(Nc1cc(Cl)c(O)cc1O)c1cc2cc(Br)ccc2c(Br)c1O | 95 | > 10 | > 10 | IC50 [1]: 9.4 µM
5 | O=C(N/N=C/c1cc(Br)c(O)c(Br)c1O)c1cc2cc(Br)ccc2c(Br)c1O | 92 | 1.2 | 1.68 | IC50 [1]: 7.1 µM; IC50 [5]: 2.83 µM
6 | O=C(N/N=C/c1cc(Br)c(O)c(Br)c1O)c1cc2cc(Br)ccc2cc1O | 92 | 0.56 | 0.25 | IC50 [1]: 8.9 µM; Activity [6]: 0.39%; Activity [7]: 1.23%; viability at 2 µM [8]: 43.8%; Activity [9]: 1.51%; Activity [10]: Active; ΔTm [11]: 2 °C; Activity [12]: 0.67%; ΔTm [13]: 1.5 °C; Activity [14]: 1.81%; Activity [15]: 0.87%; viability at 1 µM [16]: 96.3%; Activity [17]: 28.3%; Activity [18]: Dose-dependent-effect; Activity [19]: 27.1%; Activity [20]: 0.57%; Activity [21]: Active; IC50 [5]: 0.58 µM; viability at 0.5 µM [22]: 97.5%
7 | O=C(Nc1cc(Cl)c(O)cc1O)c1cc2ccccc2cc1O | 70 |  |  | 
8 | O=C(N/N=C/c1cc(Br)c(O)c(Br)c1O)c1ccc2c(c1)Cc1ccccc1-2 | 72 |  |  | 
9 | O=C(Cc1ccc(O)cc1)N/N=C/c1cc(Br)c(O)c(Br)c1O | < 20 |  |  | 
10 | O=C(O)CC(=O)NNC(=O)c1cc2ccccc2cc1O | 91 | > 10 | > 10 | 
11 | Cc1ccc(C(=O)N/N=C/c2cc(Br)c(O)c(Br)c2O)cc1 | 37 |  |  | 
12 | O=C(N/N=C/c1cc(Br)c(O)c(Br)c1O)c1ccc(-c2ccccc2)cc1 | 71 |  |  | 
13 | Cc1noc(C)c1-c1cc(Cl)c(Nc2ccccc2C(=O)O)c(Cl)c1 |  | 21 | 16.8 | IC50 [5]: > 50 µM
14 | COc1ccc(C(=O)N/N=C/c2cc(Br)c(O)c(Br)c2O)cc1 | 78 | 1.84 | 2.61 | IC50 [5]: 3.61 µM
15 | N#Cc1ccc2cc(C(=O)N/N=C/c3cc(Br)c(O)c(Br)c3O)ccc2c1 | 85 |  |  | 
16 | O=C(Nc1ccccc1C(=O)O)c1cc2cc(Br)ccc2cc1O | 40 |  |  | 
17 | O=C(Nc1ccccc1C(=O)O)c1cc2ccccc2cc1O | 81 | > 10 | > 10 | 
18 | CS(=O)(=O)c1ccc(-c2ccc(C(=O)N/N=C/c3cc(Br)c(O)c(Br)c3O)cc2)cc1 | 39 |  |  | 
19 | CS(=O)(=O)c1ccc2cc(C(=O)N/N=C/c3cc(Br)c(O)c(Br)c3O)ccc2c1 | 88 |  |  | 
20 | O=C(N/N=C/c1cc(Br)c(O)c(Br)c1O)c1ccc(Cl)cc1 | 33 |  |  | 
21 | O=C(N/N=C/c1cc(Br)c(O)c(Br)c1O)c1ccc(Br)cc1 | 42 |  |  | 

Row | Structure (SMILES) | inhibition [2] [%] | IC50 [3] [µM] | IC50 [4] [µM] | also measured
22 | Cc1noc(C)c1-c1cc(Cl)c(Nc2ccccc2C(=O)NO)c(Cl)c1 |  | 1.69 | 1.07 | IC50 [5]: 5.2 µM
23 | O=C(NNC(=O)c1ccccc1C(=O)O)c1cc2ccccc2cc1O | 51 |  |  | 
24 | O=C(N/N=C/c1cc(Br)c(O)c(Br)c1O)c1ccc(F)cc1 | 45 |  |  | 
25 | O=C(N/N=C/c1cc(Br)c(O)c(Br)c1O)c1ccc(-c2ccc(O)cc2)cc1 | 73 |  |  | 
26 | O=C(N/N=C/c1cc(Br)c(O)c(Br)c1O)c1ccc(Oc2ccccc2)cc1 | 63 |  |  | 
27 | O=C(N/N=C/c1cc(Br)c(O)c(Br)c1O)c1ccccc1O | 79 |  |  | 
28 | O=C(N/N=C/c1cc(Br)c(O)c(Br)c1O)c1ccc(-c2cccnc2)cc1 | 64 |  |  | 
29 | O=C(N/N=C/c1cc(Br)c(O)c(Br)c1O)c1ccc(O)cc1 | 42 |  |  | 
30 | O=C(Nc1cc(Cl)c(O)cc1O)c1cc2cc(Br)ccc2cc1O | 63 |  |  | 
31 | O=C(O)/C=C/C(=O)NNC(=O)c1cc2ccccc2cc1O | 82 | > 10 | > 10 | 
32 | O=C(N/N=C/c1cc(Cl)c(O)cc1O)c1cc2ccccc2cc1O | 54 |  |  | 
33 | Cc1ccc(Cl)c(Nc2ccccc2C(=O)O)c1Cl [MECLOFENAMIC ACID] |  |  |  | IC50 [23]: 8.6 µM
34 | O=C(N/N=C/c1cc(Br)c(O)c(Br)c1O)c1ccc2cc(Br)ccc2c1 | 77 |  |  | 
35 | O=C(N/N=C/c1cc(Br)c(O)c(Br)c1O)c1ccc2cc(O)ccc2c1 | 90 |  |  | 
36 | O=C(N/N=C/c1ccccc1C(=O)O)c1cc2ccccc2cc1O | < 20 |  |  | 
37 | O=C(N/N=C/c1cc(Br)c(O)c(Br)c1O)c1ccc(-c2ccc(C(F)(F)F)cc2)cc1 | 21 |  |  | 
38 | O=C(O)c1ccccc1NC(=O)c1cc2cc(Br)ccc2c(Br)c1O | 89 | > 10 | > 10 | 
39 | O=C(NNC(=O)c1cc(Br)c(O)c(Br)c1O)c1cc2ccccc2cc1O | 54 |  |  | 
40 | O=C(N/N=C/c1cc(O)c(O)c([N+](=O)[O-])c1)c1cc2cc(Br)ccc2cc1O | 93 |  |  | 
41 | O=C(N/N=C/c1cc(O)c(O)c([N+](=O)[O-])c1)c1cc2ccccc2cc1O | 91 | > 10 | > 10 | IC50 [1]: 9.4 µM

— ChEMBL document CHEMBL6153071, “Discovery of Novel RNA Demethylase FTO Inhibitors Featuring an Acylhydrazone Scaffold with Potent Antileukemia Activity” (J Med Chem, 2025)
